Reference: PubChem BioAssay (NCI)
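A five-concentration, 48-hour dose response in 96-well plates underlies each endpoint, interpolated linearly between surrounding concentrations. GI50: concentration for 50% inhibition of growth. At the TGI there is no net growth.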

Columns and labels:
Assay in all cases: DTP human tumour cell line panel, 48 h
HCC-2998 colon = tested on: HCC-2998 colon
HCT-15 colon = tested on: HCT-15 colon
HL-60(TB) leukemia = tested on: HL-60(TB) leukemia
HOP-92 NSCLC = tested on: HOP-92 NSCLC
HS 578T breast = tested on: HS 578T breast
HT29 colon = tested on: HT29 colon
KM12 colon = tested on: KM12 colon
SF-539 CNS = tested on: SF-539 CNS
SN12C renal = tested on: SN12C renal
UACC-257 melanoma = tested on: UACC-257 melanoma

SMILES | GI50 (HCC-2998 colon) [µM] | TGI (HCC-2998 colon) [µM] | GI50 (HCT-15 colon) [µM] | TGI (HCT-15 colon) [µM] | GI50 (HL-60(TB) leukemia) [µM] | TGI (HL-60(TB) leukemia) [µM] | GI50 (HOP-92 NSCLC) [µM] | TGI (HOP-92 NSCLC) [µM] | GI50 (HS 578T breast) [µM] | TGI (HS 578T breast) [µM] | GI50 (HT29 colon) [µM] | TGI (HT29 colon) [µM] | GI50 (KM12 colon) [µM] | TGI (KM12 colon) [µM] | GI50 (SF-539 CNS) [µM] | TGI (SF-539 CNS) [µM] | GI50 (SN12C renal) [µM] | TGI (SN12C renal) [µM] | GI50 (UACC-257 melanoma) [µM] | TGI (UACC-257 melanoma) [µM]
CCC(=O)c1ccc2c(c1)N(CCCN1CCN(CCO)CC1)c1ccccc1S2 | 11.8 | 26.1 | 9.88 | 28.3 | 12.7 | 30.3 | 3.43 | 15.2 | 13.3 | 36.5 | 3.98 | 14.7 | 14.9 | 28.7 | 12.2 | 27 | 16.3 | 33 | 2.86 | 7.97
O=C1OCC2=C1C(c1cccc(C(F)(F)F)c1)c1cc3c(cc1N2CCO)CCC3 (stereo not given) | 0.177 | 6.76 | 0.15 | 6.02 | 0.133 | 0.427 | 1.74 | 10.3 | 0.146 | 7.72 | 0.167 | 5.27 | 0.157 | 6.37 | 0.132 | 0.46 | 0.309 | 7.76 | 6.5 | 15.2
COc1ccc2c(c1)C(=O)c1c-2n(CCCN2CCOCC2)c(=O)c2cc([N+](=O)[O-])ccc12 | < 0.01 | 0.153 | < 0.0151 | 13.3 | < 0.0193 | 4.03 | < 0.01 | < 0.01 | 0.719 | 22.3 | < 0.01 | > 100 | < 0.01 | 0.544 | < 0.01 | < 0.01 | < 0.01 | 19.4 | 0.0504 | 3.08
CN(C)CCNC(=O)c1nc([N+](=O)[O-])cn1C |  | > 100 |  | > 100 |  | > 100 |  | > 100 |  | > 100 |  | > 100 |  | > 100 |  | > 100 |  | > 100 |  | > 100
COc1ccc(-c2cc(-c3nnc(SCC(=O)Nc4ccc(C(C)=O)cc4)o3)c3ccccc3n2)cc1 | > 100 | > 100 | > 100 | > 100 | > 100 | > 100 | 9.1 | 37.5 | 14.2 | 92.3 | > 100 | > 100 | > 100 | > 100 | 33.9 | > 100 | > 100 | > 100 | > 100 | > 100
Cc1cc(C)c2c(N)c3cccc(C)c3nc2n1 | 1.94 | 4.92 | 1.76 | 6.5 | 3.67 | 16.4 | 2.24 | 6.96 | 3.25 | 25.1 | 0.994 | 5.27 | 3.32 | 9.69 | 1.61 | 5.01 | 1.61 | 11.2 | 2.15 | 4.45
Oc1cc(Cl)ccc1Cc1ccc(Cl)cc1O | 14.6 | 27.7 | 8.09 | 20.3 | 9.67 | > 100 | 2.67 | 8.11 | 7.2 | 32.8 | 17.5 | 31.3 | 14.8 | 28.1 | 11.4 | 25.4 | 7.92 | 20.6 | 14.7 | 36.9
C=C(C)[C@@H]1CC[C@]2(C(=O)NCCNCCNCCN)CC[C@]3(C)[C@H](CC[C@@H]4[C@@]5(C)CCC(=O)C(C)(C)[C@@H]5CC[C@]43C)[C@@H]12 | 7.16 | 14.8 | 7.65 | 15.7 | 8.88 | 19 | 2.93 | 10.3 | 8.3 | 19.2 | 7.17 | 14.6 | 8.47 | 16.6 | 7.53 | 14.6 | 7.56 | 15.3 | 7.91 | 18.3
